Consider 28 compounds from US10065972B2, “Bicyclic or tricyclic heterocyclic compound” (MITSUBISHI TANABE PHARMA CORPORATION, priority 2014, dated 2018).

Sequence of human recombinant KAT-II (Q8N5Z0 30-425): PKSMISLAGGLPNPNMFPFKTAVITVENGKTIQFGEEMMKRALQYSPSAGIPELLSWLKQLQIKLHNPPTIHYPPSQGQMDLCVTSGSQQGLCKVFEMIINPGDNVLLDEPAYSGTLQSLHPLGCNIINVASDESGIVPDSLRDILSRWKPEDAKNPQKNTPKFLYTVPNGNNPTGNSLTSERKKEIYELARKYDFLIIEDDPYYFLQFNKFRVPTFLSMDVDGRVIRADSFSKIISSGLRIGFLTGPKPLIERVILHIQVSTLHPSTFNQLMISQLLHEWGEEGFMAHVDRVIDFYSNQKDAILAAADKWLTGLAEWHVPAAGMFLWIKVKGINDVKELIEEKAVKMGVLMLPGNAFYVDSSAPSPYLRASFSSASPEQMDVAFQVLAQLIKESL

The assay concerns the target human recombinant KAT-II (Homo sapiens (Human), UniProt Q8N5Z0). Briefly: KAT-II inhibitory test. The format is biochemical. The following applies: 3.0 μmol/L kynurenine, 37° C., 1 hr, pH 8.0; kynurenic acid quantified by HPLC. In a few lines:
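E. coli-expressed His/MBP-tagged human KAT-II (2.0 ng/μL) incubated with 3.0 μmol/L kynurenine and 10 μmol/L pyridoxal phosphate in Tris-acetate pH 8.0, 1 hr at 37 °C. Reaction stopped with TCA. Kynurenic acid quantified by reversed-phase HPLC with fluorescence detection (ex 354/em 460 nm), duplicate at each concentration.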
Take `CN1CCC(n2c(C(F)(F)F)nc3sc(N4CCC[C@@H]4C(=O)NCc4ccccc4)nc3c2=O)CC1` [Example 264, (R)-N-benzyl-1-[6-(1-methylpiperidin-4-yl)-7-oxo-5-trifluoromethyl-6,7-dihydro-[1,3]thiazolo[5,4-d]pyrimidin-2-yl]pyrrolidine-2-carboxamide]: the IC50 (as a rule, the concentration needed to halve the response being measured) is 160 nM.

For the compound `C[C@@H](NC(=O)[C@H]1CCCN1c1nc2c(=O)n(C)c(C(C)(F)F)nc2s1)c1ccccc1` [Example 267, (R)-1-[5-(1,1-difluoroethyl)-6-methyl-7-oxo-6,7-dihydro[1,3]thiazolo[5,4-d]pyrimidin-2-yl]-N-((R)-1-phenylethyl)pyrrolidine-2-carboxamide], the IC50 was determined as 22 nM.

For `Cn1c(C2(F)CC2)nc2sc(N3CCC[C@@H]3C(=O)NCc3ccccc3)nc2c1=O` [Example 268, (R)-N-benzyl-1-[5-(1-fluorocyclopropyl)-6-methyl-7-oxo-6,7-dihydro[1,3]thiazolo[5,4-d]pyrimidin-2-yl]pyrrolidine-2-carboxamide], the IC50 is 8.8 nM.

With `Cn1c(C(F)(F)c2ccccn2)nc2sc(N3CCC[C@@H]3C(=O)NCc3ccccc3)nc2c1=O` [Example 273, (R)-N-benzyl-1-{5-[difluoro(pyridin-2-yl)methyl]-6-methyl-7-oxo-6,7-dihydro[1,3]thiazolo[5,4-d]pyrimidin-2-yl}pyrrolidine-2-carboxamide], the IC50 amounted to 5.6 nM.

Regarding `Cn1c(C(F)F)nc2sc(N3CCC[C@@H]3C(=O)NCc3ccccc3)nc2c1=O` [Example 281, (R)-N-benzyl-1-(5-difluoromethyl-6-methyl-7-oxo-6,7-dihydro-[1,3]thiazolo[5,4-d]pyrimidin-2-yl)pyrrolidine-2-carboxamide], the IC50 came out at 27 nM.

With `CN(C)CCCn1c(C(F)(F)F)nc2sc(N3CCC[C@@H]3C(=O)NCc3ccccc3)nc2c1=O` [Example 294, (R)-N-benzyl-1-{6-[3-(N′,N′-dimethylamino)propyl]-7-oxo-5-trifluoromethyl-6,7-dihydro-[1,3]thiazolo[5,4-d]pyrimidin-2-yl}pyrrolidine-2-carboxamide], the IC50 amounted to 170 nM.

As for `Cn1c(-c2ncccc2F)nc2sc(N3CCC[C@@H]3C(=O)NCc3ccccc3)nc2c1=O` [Example 298, (R)-N-benzyl-1-[5-(3-fluoropyridin-2-yl)-6-methyl-7-oxo-6,7-dihydro-[1,3]thiazolo[5,4-d]pyrimidin-2-yl]pyrrolidine-2-carboxamide], the IC50 was 26 nM.

`CCn1c(C(F)F)nc2sc(N3CCC[C@@H]3C(=O)N[C@@H](c3ccccc3)C3CC3)nc2c1=O` [Example 299, (R)-N-[(R)-cyclopropyl(phenyl)methyl]-1-(5-difluoromethyl-6-ethyl-7-oxo-6,7-dihydro-[1,3]thiazolo[5,4-d]pyrimidin-2-yl)pyrrolidine-2-carboxamide]: the IC50 was found to be 460 nM.

With `CCn1c(C(F)F)nc2sc(N3CCC[C@@H]3C(=O)N[C@H](COC)c3ccccc3)nc2c1=O` [Example 300, (R)-1-(5-difluoromethyl-6-ethyl-7-oxo-6,7-dihydro-[1,3]thiazolo[5,4-d]pyrimidin-2-yl)-N-((S)-2-methoxy-1-phenylethyl)pyrrolidine-2-carboxamide], the IC50 worked out at 180 nM.

As for `CCn1c(C(F)F)nc2sc(N3CCC[C@@H]3C(=O)N[C@@H](c3ccccc3)C(F)(F)F)nc2c1=O` [Example 301, (R)-1-(5-difluoromethyl-6-ethyl-7-oxo-6,7-dihydro-[1,3]thiazolo[5,4-d]pyrimidin-2-yl)pyrrolidine-N-((S)-2,2,2-trifluoro-1-phenylethyl)-2-carboxamide], the IC50 is 2600 nM.

Turning to `CCn1c(C(F)F)nc2sc(N3CCC[C@@H]3C(=O)NCc3ccc4c(c3)OCO4)nc2c1=O` [Example 304, (R)-N-[(benzo[1,3]dioxo-5-yl)methyl]-1-(5-difluoromethyl-6-ethyl-7-oxo-6,7-dihydro-[1,3]thiazolo[5,4-d]pyrimidin-2-yl)pyrrolidine-2-carboxamide], the IC50 is 21 nM.

Regarding `CCn1c(C(F)F)nc2sc(N3CCC[C@@H]3C(=O)NCc3ccco3)nc2c1=O` [Example 307, (R)-1-(5-difluoromethyl-6-ethyl-7-oxo-6,7-dihydro-[1,3]thiazolo[5,4-d]pyrimidin-2-yl)-N-[(furan-2-yl)methyl]pyrrolidine-2-carboxamide], the IC50 was 120 nM.

In the case of `CCn1c(C(F)F)nc2sc(N3CCC[C@@H]3C(=O)NCc3cccs3)nc2c1=O` [Example 309, (R)-1-(5-difluoromethyl-6-ethyl-7-oxo-6,7-dihydro-[1,3]thiazolo[5,4-d]pyrimidin-2-yl)-N-[(thiophen-2-yl)methyl]pyrrolidine-2-carboxamide], the IC50 amounted to 61 nM.

Turning to `CCn1c(C(F)F)nc2sc(N3CCC[C@@H]3C(=O)NCc3cc(C)on3)nc2c1=O` [Example 311, (R)-1-(5-difluoromethyl-6-ethyl-7-oxo-6,7-dihydro-[1,3]thiazolo[5,4-d]pyrimidin-2-yl)-N-[(5-methyl-isoxazol-3-yl)methyl]pyrrolidine-2-carboxamide], the IC50 turned out to be 340 nM.

Regarding `CCn1c(C(F)F)nc2sc(N3CCC[C@@H]3C(=O)NCc3cc(C)nn3C)nc2c1=O` [Example 313, (R)-1-(5-difluoromethyl-6-ethyl-7-oxo-6,7-dihydro-[1,3]thiazolo[5,4-d]pyrimidin-2-yl)-N-[(2,5-dimethyl-2H-pyrazol-3-yl)methyl]pyrrolidine-2-carboxamide], the IC50 is 1100 nM.

As for `CCn1c(C(F)F)nc2sc(N3CCC[C@@H]3C(=O)NCc3nccs3)nc2c1=O` [Example 314, (R)-1-(5-difluoromethyl-6-ethyl-7-oxo-6,7-dihydro-[1,3]thiazolo[5,4-d]pyrimidin-2-yl)-N-[(1,3-thiazol-2-yl)methyl]pyrrolidine-2-carboxamide], the IC50 worked out at 610 nM.

As to `COC1CN(Cc2nc3sc(N4CCC[C@@H]4C(=O)NCc4ccccc4)nc3c(=O)n2C)C1` [Example 321, (R)-N-benzyl-1-{5-[(3-methoxyazetidin-1-yl)methyl]-6-methyl-7-oxo-6,7-dihydro[1,3]thiazolo[5,4-d]pyrimidin-2-yl}pyrrolidine-2-carboxamide], the IC50 was 70 nM.

`Cn1c(CN2CCOCC2)nc2sc(N3CCC[C@@H]3C(=O)NCc3ccccc3)nc2c1=O` [Example 322, (R)-N-benzyl-1-{6-methyl-5-[(morpholin-4-yl)methyl]-7-oxo-6,7-dihydro[1,3]thiazolo[5,4-d]pyrimidin-2-yl}pyrrolidine-2-carboxamide]: the IC50 was determined as 20 nM.

As to `CN(C)Cc1nc2sc(N3CCC[C@@H]3C(=O)NCc3ccccc3)nc2c(=O)n1C` [Example 323, (R)-N-benzyl-1-{5-[(N′,N′-dimethylamino)methyl]-6-methyl-7-oxo-6,7-dihydro[1,3]thiazolo[5,4-d]pyrimidin-2-yl}pyrrolidine-2-carboxamide], the IC50 was found to be 78 nM.

For the compound `Cn1c(CN2Cc3ccccc3C2)nc2sc(N3CCC[C@@H]3C(=O)NCc3ccccc3)nc2c1=O` [Example 328, (R)-N-benzyl-1-{5-[(1,3-dihydro-2H-isoindol-2-yl)methyl]-6-methyl-7-oxo-6,7-dihydro[1,3]thiazolo[5,4-d]pyrimidin-2-yl}pyrrolidine-2-carboxamide], the IC50 stood at 17 nM.

For the compound `CN(Cc1nc2sc(N3CCC[C@@H]3C(=O)NCc3ccccc3)nc2c(=O)n1C)CC(F)(F)F` [Example 333, (R)-N-benzyl-1-[6-methyl-5-{[N′-methyl-N′-(2,2,2-trifluoroethyl)amino]methyl}-7-oxo-6,7-dihydro[1,3]thiazolo[5,4-d]pyrimidin-2-yl]pyrrolidine-2-carboxamide], the IC50 was determined as 49 nM.

`CN(C)c1nc2sc(N3CCC[C@@H]3C(=O)NCc3ccccc3)nc2c(=O)n1C` [Example 335, (R)-N-benzyl-1-[5-(N′,N′-dimethylamino)-6-methyl-7-oxo-6,7-dihydro[1,3]thiazolo[5,4-d]pyrimidin-2-yl]pyrrolidine-2-carboxamide]: the IC50 amounted to 5.6 nM.

Take `Cn1c(N2CCCCC2)nc2sc(N3CCC[C@@H]3C(=O)NCc3ccccc3)nc2c1=O` [Example 337, (R)-N-benzyl-1-[6-methyl-7-oxo-5-(piperidin-1-yl)-6,7-dihydro[1,3]thiazolo[5,4-d]pyrimidin-2-yl]pyrrolidine-2-carboxamide]: the IC50 was 4.4 nM.

In the case of `Cn1c(N2CCOCC2)nc2sc(N3CCC[C@@H]3C(=O)NCc3ccccc3)nc2c1=O` [Example 339, (R)-N-benzyl-1-[6-methyl-5-(morpholin-4-yl)-7-oxo-6,7-dihydro[1,3]thiazolo[5,4-d]pyrimidin-2-yl]pyrrolidine-2-carboxamide], the IC50 amounted to 7.9 nM.

For `CC(C)Nc1nc2sc(N3CCC[C@@H]3C(=O)NCc3ccccc3)nc2c(=O)n1C` [Example 341, (R)-N-benzyl-1-{6-methyl-7-oxo-5-[(propan-2-yl)amino]-6,7-dihydro[1,3]thiazolo[5,4-d]pyrimidin-2-yl}pyrrolidine-2-carboxamide], the IC50 was 11 nM.

With `Cn1c(-c2ccccc2F)nc2sc(N3CCC[C@@H]3C(=O)NCc3ccccc3)nc2c1=O` [Example 345, (R)-N-benzyl-1-[5-(2-fluorophenyl)-6-methyl-7-oxo-6,7-dihydro[1,3]thiazolo[5,4-d]pyrimidin-2-yl]pyrrolidine-2-carboxamide], the IC50 worked out at 8.7 nM.

`CNCCn1c(C(F)(F)F)nc2sc(N3CCC[C@@H]3C(=O)NCc3ccccc3)nc2c1=O` [Example 363, (R)-N-benzyl-1-[6-(2-methylaminoethyl)-7-oxo-5-trifluoromethyl-6,7-dihydro[1,3]thiazolo[5,4-d]pyrimidin-2-yl]pyrrolidine-2-carboxamide]: the IC50 worked out at 120 nM.

On to `CN1CCC(Cn2c(C(F)(F)F)nc3sc(N4CCC[C@@H]4C(=O)NCc4ccccc4)nc3c2=O)CC1` [Example 366, (R)-N-benzyl-1-{6-[(1-methylpiperidin-4-yl)methyl]-7-oxo-5-trifluoromethyl-6,7-dihydro[1,3]thiazolo[5,4-d]pyrimidin-2-yl}pyrrolidine-2-carboxamide], for which the IC50 is 150 nM.
